Values belong to the molecule of their own block, whether it stands above or below them.
Key:
[1] = test system: AMPA receptor as compared to the kainate receptor; conditions: selectivity ratio; cited from earlier work
[2] = biological target: glycine site of the NMDA receptor (Homo sapiens, UniProt Q05586); conditions: cited from earlier work
[3] = cited from earlier work
[4] = test system: Sprague-Dawley rats; test: Rat allodynia/hyperalgesia pain model after capsaicin; type: in vivo
Procedure: This test is to determine the extent of protection by a test compound to neuropathic pain sensations. With the rat standing on an elevated perforated floor, mechano-allodynia is measured by applying from beneath a graded series of von Frey hairs to the mid-plantar region of the effected paws. The hair that evokes at least one withdrawal response is designated the threshold level when compared to the sham treated nerve. Alternatively, the paw can be illuminated with a noxious radiant heat and the time to paw withdrawal is measured.
The model is described by Bennett, Neuro. Report 5, 1438-1440 (1994), and references cited therein. He measures changes in withdrawal latency after chronic constriction injury; a rat is prepared by bilaterally exposing the sciatic nerves on both thighs. On one side, loosely fitting constrictive ligatures are tied around the nerve; the other side is sham manipulated but not ligated. The model can also be used to measure increases in sensitivity and decreases in latency after injection of an irritating or pain inducing substance such as capsaicin or carrageenan.
A total of 40 adult male Sprague-Dawley rats, 250-300 g, were used. Baseline measures of withdrawal responses evoked by heat and mechanical stimuli were determined for each hind paw and obtained for at least 4 consecutive days until withdrawal and latency responses were stable. Four groups of 10 rats each were sorted to establish equivalent baseline mean responses to heat and mechanical stimuli. Each group was randomly assigned to 1 of 4 treatment conditions: vehicle, 10, 50, or 100 mg/kg compound i.p. On test day, withdrawal responses to heat and mechanical stimuli were measured before intraperitoneal injection of the treatment condition. […] Capsaicin (10 μl of 0.1%, intraplantar) was administered 30 minutes after i.p. injection. Withdrawal responses to heat and mechanical stimuli were again measured 5 and 30 minutes post capsaicin. The contralateral paw served as an internal control. The experimenter was blind to the treatment condition.
The prodrugs were tested in the allodynia model after inducing pain with capsaicin.
A total of 24 adult male Sprague-Dawley rats, 250-300 g., were used and treated according to protocol described above using (2S,4R)-4-methyl glumatic acid methyl ester.
A total of 33 adult male Sprague-Dawley rats, 250-300 g., were treated according to protocol described above using (2S,4R)-4-methyl glumatic acid ethyl ester. The concentrations of the compound were […].

[5] = Prodrug hydrolysis to the acid form in plasma; type: in vitro ADME
Excerpt: The ester bond in any of the disclosed prodrug compositions can be readily cleaved in vivo. Therefore, prodrug compositions of Formula I can be hydrolyzed to the corresponding acids form in plasma.

[6] = test system: Sprague-Dawley rats; test: Rat allodynia/hyperalgesia pain model after capsaicin; type: in vivo; conditions: 1 hour before capsaicin

SMILES: NS(=O)(=O)c1cccc2c3c(cc([N+](=O)[O-])c12)=NC(=O)C(=O)N=3 [NBQX, 6-nitro-7-sulfamoylbenzoquinoxaline-2,3-dione]
affinity for AMPA receptor as compared to kainate receptor [1]: thirty
binding to glycine site of NMDA receptor [2]: non-specifically binds
solubility in water [3]: very limited

hydrolysis to (2S,4R)-4-methyl glutamic acid (1) [5]: readily hydrolyzed
melting point: 138 to 139 °C
SMILES: COC(=O)[C@H](C)C[C@H](N)C(=O)OC.Cl [Compound 2, (2S,4R)-4-Methyl Glutamic Acid Dimethyl Ester Hydrochloride]
hyperalgesia to mechanical stimuli (p<0.05) ([4]; 10 mg/kg i.p., capsaicin): reduced
hyperalgesia to radiant heat (p<0.05) ([4]; 10 mg/kg i.p., capsaicin): reduced
prevention of development of hyperalgesia ([6]; 0.1 mg/kg i.p.): no effect
hyperalgesia prevention ([6]; 1 mg/kg i.p.): about 40%
prevention of development of hyperalgesia ([6]; 10 and 50 mg/kg i.p.): totally prevented

melting point: 138 to 139 °C
SMILES: COC(=O)[C@H](N)C[C@H](C)C(=O)OC.Cl

melting point: 158 to 160 °C
SMILES: CCOC(=O)[C@H](C)C[C@H](N)C(=O)OCC.Cl [Compound 3, (2S,4R)-4-Methyl Glutamic Acid Diethyl Ester Hydrochloride]
blocking hyperalgesia to heat ([4]; 0.1 to 50 mg/kg i.p., capsaicin): not effective
blocking mechanical hyperalgesia (p<0.05) ([4]; 10 and 50 mg/kg i.p., capsaicin): effective

SMILES: C[C@H](C[C@H](N)C(=O)O)C(=O)O [Compound 1, (2S,4R)-4-Methyl glutamic acid]
blocking hyperalgesia to heat ([4]; 10, 50, 100 mg/kg i.p., capsaicin): effective
blocking mechanical hyperalgesia ([4]; 10, 50, and 100 mg/kg i.p., capsaicin intraplantar 30 minutes after injection): effective
mechanical hyperalgesia versus vehicle (p<0.05) ([4]; 5 minutes post capsaicin, all doses (10, 50, 100 mg/kg i.p.)): significantly different from vehicle
hyperalgesia to heat versus vehicle ([4]; 30 minute time point): not significantly different from vehicle
mechanical hyperalgesia versus vehicle (p<0.05) ([4]; 30 minutes post capsaicin, 100 mg/kg i.p. only): remained significantly different from vehicle
hyperalgesia to heat versus vehicle (p<0.05) ([4]; all three doses (10, 50, 100 mg/kg i.p.), early time point): significantly different from vehicle

melting point: 158 to 160 °C
SMILES: CCOC(=O)[C@H](N)C[C@H](C)C(=O)OCC.Cl

Source: US20020115721A1, “Esters of alkycarboxy amino acids as prodrugs of modulators of the kainate receptor” (Annovis, Inc., priority 2000, published 2002)
